Measurements: US5716950A, “Diazacycloalkanealkylsulfonamide derivatives” (Nippon Shoji Kabushiki Kaisha, priority 1994, dated 1998)
Like-named read-outs stand apart in the source and are kept apart here.

Experiments:
[1] = test system: extracted ileum (histamine contraction); test: Antihistaminic activity: suppression of histamine-induced contraction of extracted ileum; parameters: species or system Female Hartley guinea pig; settings: histamine 3×10^-7 M; guinea pig ileum; 50% suppression of contraction; read-out: anti-His in extracted ileum EC50
Description: Female Hartley guinea pig (weighing 500 to 650 g) were sacrificed and the ileum (length of about 10 to 25 cm) was extracted from the ileocecum to prepare a specimen (length of 3 cm). […] After allowing to stand for 60 minutes to make the specimen stable, a histamine (3×10^-7 M) was applied to the specimen at single application. Contraction of the specimen was determined and recorded using isotonic transducer. After repeating application of a histamine to make the contraction constant, a diluted solution of the test compound was applied. Three minutes after the application, a histamine was then added and an activity of suppressing contraction was examined.

[2] = test system: passive cutaneous anaphylaxis (PCA); test: Activity of suppressing passive cutaneous anaphylaxis (PCA); type: in vivo, Male Wistar rats
Description: Test compounds were examined on their antiallergic activities. […] After 48 hours, 1.0 ml of 0.5 % Evans Blue saline solution containing DNP.BSA (1 mg in protein) was injected through the tail vein to induce allergic reaction. After 30 minutes, the rats were sacrificed by bleeding and the skin of back where dye was leaked out was flayed and put it into 20 ml test tube with ground stopper. Thereto was added 1.0 ml of 1N KOH aqueous solution and then it was allowed to stand at 37° C. in incubator overnight for lysing. To this solution was added 8.3 ml of a mixture of acetone and 0.6N phosphoric acid (13:5) and the mixture was mixed well and then was filtered to remove the insoluble materials.
The test compounds were administered orally 1 hour before the antigen challenge. Suppression rate was expressed by percentage to the value in control where 0.5% aqueous methylcellulose solution was orally administered.

[3] = test system: mouse biphasic allergic dermal reaction; test: Mouse Biphasic Allergic Dermal Reaction; type: in vivo, Female Balb/c mice; settings: for inhibition in vivo at 0.1 mg/kg / inhibition in vivo at 1 mg/kg / inhibition in vivo at 3 mg/kg / inhibition in vivo at 10 mg/kg / inhibition in vivo at 30 mg/kg: Mus musculus; for suppression of the late allergic reaction (in words): edema after 24 hours; for suppression of the immediate allergic reaction (in words): edema after 1 hour
Description: Female Balb/c mice (weighing 18 to 25 g) were subjected to passive sensitization by intravenous administration of 1 ml of anti-DNP monoclonal IgE antibody showing 1:1024 of antibody titer. 24 hours after the sensitization, 25 μl of 0.15% dinitrofluorobenzene (DNFB) were applied to both sides of right and left auricles of mouse for inducing allergic reactions. Thickness of auricles were measured using Dial Thickness Gauge before the challenge with DNFB, and 1 and 24 hours after the challenge. And then, increase in thickness of auricles at 1 hour after the challenge (edema caused by immediate allergic reaction) and that at 24 hours after the challenge (edema caused by late allergic reaction) were calculated against the thickness of auricles before the challenge with DNFB, respectively.
Suppression rate was expressed by relative ratio (%) to the value in control in which a solvent was administered.
Test compounds, diphenhydramine which is a existing classical antihistamic drug, amlexanox which is an antiallergic drug and dexamethasone which is a steroidal drug were administered orally (partly intraperitoneally) once before antigen challenge.
The above test was performed by using a mouse biphasic allergic dermal reaction model which was a new model [see, Sakurai T, Inagaki, N. and Nagai, H Life Sci., 54, PL291-295 (1994)]. In this model, the immediate allergic reaction was induced by mediator release from mast cell at 1 hour after the challenge, and the late allergic reaction with inflammatory cells such as eosinophil (edema after 24 hours) was induced after 24 hours from the challenge.

male ICR mice = test: Toxicity Test (mouse acute toxicity, minimum lethal dose); type: in vivo; settings: po, observed for 24 hours, head prints (10 mg/kg-po)
Source text: The test compounds were orally administered to male ICR mice (weighing to 30 g) after fasting overnight. […] The results were expressed by minimum lethal dose. Toxicity of any compounds of the present invention were weaker than that of ketotifen which was a reference compound.

[4] = Rattus norvegicus, po, 1 h, 10 mg/kg-po, 1 hour before antigen challenge, read-out: % suppression of rat PCA
[5] = 1 h, 1.0 mg/kg, oral, read-out: immediate edema (1 hr) suppression (%)
[6] = 24 h, 0.1 mg/kg, oral, read-out: late edema (24 hr) suppression (%)
[7] = 24 h, 1.0 mg/kg, oral, read-out: late edema (24 hr) suppression (%)
[8] = po, 1 h, read-out: immediate edema (1 hr) suppression (%)
[9] = po, 24 h, read-out: late edema (24 hr) suppression (%)

| SMILES | EC50 [1] [nM] | inhibition in vivo at 10 mg/kg [2, 4] [%] | other results |
| --- | --- | --- | --- |
| O=S(=O)(CCCCCCN1CCN(C(c2ccccc2)c2ccccc2)CC1)NC1CCCCC1 [Example 149] | 310 | 97.7 |  |
| CC(C)NS(=O)(=O)CCCCCN1CCN(C(c2ccccc2)c2ccc(Cl)cc2)CC1 (stereo not shown) [Example 110] | 570 | 88.3 |  |
| CCNS(=O)(=O)CCCCCCCN1CCN(C(c2ccccc2)c2ccc(Cl)cc2)CC1 (stereo not shown) [Example 107] | 620 | 87.8 |  |
| O=S(=O)(CCCCN1CCN(C(c2ccccc2)c2ccc(Cl)cc2)CC1)NC1CC1 (stereo not shown) [Example 113] | 710 | 87.5 |  |
| C[C@@H]1C[C@H]2[C@@H]3CCC4=CC(=O)C=C[C@]4(C)[C@@]3(F)[C@@H](O)C[C@]2(C)[C@@]1(O)C(=O)CO [dexamethasone, reference compound] |  |  | inhibition in vivo at 0.1 mg/kg ([3]; ip, 1 h, 0.1 mg/kg (i.p.), read-out: immediate edema (1 hr) suppression (%)): 32.4%; inhibition in vivo at 1 mg/kg ([3]; ip, 1 h, dexamethasone 1.0 mg/kg, (i.p.) printed only at the 0.1 line, read-out: immediate edema (1 hr) suppression (%)): 32.4%; inhibition in vivo at 3 mg/kg ([3]; ip, 1 h, dexamethasone 3.0 mg/kg, (i.p.) printed only at the 0.1 line, read-out: immediate edema (1 hr) suppression (%)): 11.8%; inhibition in vivo at 0.1 mg/kg ([3]; ip, 24 h, 0.1 mg/kg (i.p.), read-out: late edema (24 hr) suppression (%)): 34.3%; inhibition in vivo at 1 mg/kg ([3]; ip, 24 h, dexamethasone 1.0 mg/kg, (i.p.) printed only at the 0.1 line, read-out: late edema (24 hr) suppression (%)): 42.9%; inhibition in vivo at 3 mg/kg ([3]; ip, 24 h, dexamethasone 3.0 mg/kg, (i.p.) printed only at the 0.1 line, read-out: late edema (24 hr) suppression (%)): 45.7%; suppression of the late allergic reaction (in words) [3]: showed the strong activity of suppressing the late allergic reaction |
| CNS(=O)(=O)CCCCCN1CCN(C(c2ccccc2)c2ccc(Cl)cc2)CC1 (stereo not shown) [Example 106] | 400 | 90.3 |  |
| O=S(=O)(CCCCCCN1CCN(C(c2ccccc2)c2ccccn2)CC1)NC1CC1 (stereo not shown) [Example 123] | 330 | 83.5 |  |
| NS(=O)(=O)CCCCCCN1CCN(C(c2ccccc2)c2ccc(Cl)cc2)CC1 (stereo not shown) [Example 153, potassium 6-[[4-(4-chlorophenyl)phenylmethyl]-1-piperazinyl]hexylsulfonamide] |  |  | inhibition in vivo at 0.1 mg/kg ([3]; 1 h, 0.1 mg/kg, oral, read-out: immediate edema (1 hr) suppression (%)): 24%; inhibition in vivo at 1 mg/kg [3, 5]: 56%; inhibition in vivo at 0.1 mg/kg [3, 6]: 24%; inhibition in vivo at 1 mg/kg [3, 7]: 48%; mouse acute toxicity (lethal dose) (male ICR mice): > 500 mg/kg; % suppression of rat PCA ([2]; 10 mg/kg-po, 1 hour before antigen challenge): 86.2% |
| CN1CCC(=C2c3ccccc3CC(=O)c3sccc32)CC1 [ketotifen, reference compound] |  |  | mouse acute toxicity (lethal dose) (male ICR mice): 500 mg/kg; inhibition in vivo at 2 mg/kg ([2]; Rattus norvegicus, po, 1 h, read-out: % suppression of rat PCA): 47.4 to 73.6% |
| CN(C)S(=O)(=O)CCCCCCN1CCN(C(c2ccccc2)c2ccc(F)cc2)CC1 (stereo not shown) [Example 68] | 370 | 94.5 |  |
| CC(C)c1ccc2oc3nc(N)c(C(=O)O)cc3c(=O)c2c1 [amlexanox, reference compound] |  |  | inhibition in vivo at 3 mg/kg [3, 8]: 38.5%; inhibition in vivo at 10 mg/kg [3, 8]: 38.5%; inhibition in vivo at 30 mg/kg [3, 8]: 50%; inhibition in vivo at 3 mg/kg [3, 9]: 12.1%; inhibition in vivo at 30 mg/kg [3, 9]: 6.1%; suppression of the immediate allergic reaction (in words) [3]: suppressed the immediate allergic reaction; suppression of the late allergic reaction (in words) [3]: did not suppress the late allergic reaction |
| O=S(=O)(CCCCCCN1CCN(C(c2ccccc2)c2ccccc2)CC1)NC1CCC1 [Example 134] | 580 | 87.1 |  |
| O=S(=O)(CCCCCN1CCN(C(c2ccccc2)c2ccc(Cl)cc2)CC1)NC1CC1 (stereo not shown) [Example 114] | 560 | 83.5 |  |
| O=S(=O)(CCCCCCCCCCN1CCN(C(c2ccc(F)cc2)c2ccccn2)CC1)NC1CC1 (stereo not shown) [Example 58] | 350 | 76.5 |  |
| O=S(=O)(CCCCCCN1CCN(C(c2ccccc2)c2ccccc2)CC1)NC1CC1 [Example 126] | 300 | 80.8 |  |
| O=S(=O)(CCCCCCCCN1CCN(C(c2ccc(F)cc2)c2ccccn2)CC1)NC1CC1 (stereo not shown) [Example 57] | 390 | 90.6 | inhibition in vivo at 1 mg/kg [3, 5]: 31.6%; inhibition in vivo at 0.1 mg/kg [3, 6]: 7.7%; inhibition in vivo at 1 mg/kg [3, 7]: 46.2%; suppression of the late allergic reaction (in words) [3]: showed strong activity of suppressing the late allergic reaction |
| CNS(=O)(=O)CCCCCN1CCN(C(c2ccccc2)c2ccccc2)CC1 [Example 19] | 460 | 78 |  |
| CCCNS(=O)(=O)CCCCCCN1CCN(C(c2ccccc2)c2ccc(Cl)cc2)CC1 (stereo not shown) [Example 36] | 560 | 77.5 |  |
| O=S(=O)(CCCCCN1CCN(C(c2ccccc2)c2ccc(Cl)cc2)CC1)NC1CCC1 (stereo not shown) [Example 127] | 410 | 90.7 |  |
| CN(C)S(=O)(=O)CCCCCCN1CCN(C(c2ccc(F)cc2)c2ccccn2)CC1 (stereo not shown) [Example 82] | 790 | 86.8 |  |
| O=S(=O)(CCCCCCN1CCN(C(c2ccccc2)c2ccccc2)CC1)NC1CCCC1 [Example 141] | 210 | 87.4 |  |
| CCNS(=O)(=O)CCCCCCCCN1CCN(C(c2ccc(F)cc2)c2ccccn2)CC1 (stereo not shown) [Example 34] | 330 | 84.8 |  |
| O=S(=O)(O)CCCCN1CCN(C(c2ccc(F)cc2)c2ccccn2)CC1 (stereo not shown) [Ref. Ex. 4, 4-[4-[4-fluorophenyl-(2-pyridyl)methyl]-1-piperazinyl]butylsulfonic acid, reference compound] |  | 0 | antiallergic activity / activity of suppressing PCA (in words) ([2]; rat, in vivo): did not show an antiallergic activity |
| CN(C)CCOC(c1ccccc1)c1ccccc1 [diphenhydramine, reference compound] |  |  | inhibition in vivo at 3 mg/kg ([3]; 1 h, 3.0 mg/kg, oral, read-out: immediate edema (1 hr) suppression (%)): 17.8%; inhibition in vivo at 10 mg/kg ([3]; 1 h, 10.0 mg/kg, oral, read-out: immediate edema (1 hr) suppression (%)): 13.3%; inhibition in vivo at 30 mg/kg ([3]; 1 h, 30.0 mg/kg, oral, read-out: immediate edema (1 hr) suppression (%)): 53.3%; inhibition in vivo at 30 mg/kg ([3]; 24 h, 30.0 mg/kg, oral, read-out: late edema (24 hr) suppression (%)): 14.3%; suppression of the immediate allergic reaction (in words) [3]: suppressed the immediate allergic reaction; suppression of the late allergic reaction (in words) [3]: did not suppress the late allergic reaction |
